According to the supplement of paper PMC4932681:

Legend:
T-47D [1] = test: relative IC50 (midpoint of fitted logistic curve, plateau may be below 50% inhibition; CellTiter-Glo viability); higher = less potent; settings: 72 h
Procedure: (§1)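 FIMM FO2B library drugs were plated at 5 concentrations spanning a 10,000-fold range in 384-well plates. Cells were incubated for 72 h at 37 °C and viability was read by CellTiter-Glo, normalised to DMSO (0% inhibition) and 100 µM benzethonium chloride (100% inhibition). IC50 values come from logistic dose-response fits (Breeze pipeline). Tamoxifen-resistant lines and the 'in 1µM tamoxifen' parental arms were tested in medium with 1 µM 4-OH-tamoxifen.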

BT-474 [2] = test: as above; settings: 72 h
Procedure: as §1

T-47D Tam1 [3] = test: as above; settings: 4-OH-tamoxifen in medium 1 µM; 72 h
Procedure: as §1

BT-474 Tam2 [4] = test: as above; settings: 4-OH-tamoxifen in medium 1 µM; 72 h
Procedure: as §1

BT-474 Tam1 [5] = test: as above; settings: 4-OH-tamoxifen in medium 1 µM; 72 h
Procedure: as §1

MCF-7 [6] = test: as above; settings: 72 h
Procedure: as §1

ZR-75-1 Tam1 [7] = test: as above; settings: 4-OH-tamoxifen in medium 1 µM; 72 h
Procedure: as §1

MCF-7 Tam1 [8] = test: as above; settings: 4-OH-tamoxifen in medium 1 µM; 72 h
Procedure: as §1

ZR-75-1 Tam2 [9] = test: as above; settings: 4-OH-tamoxifen in medium 1 µM; 72 h
Procedure: as §1

ZR-75-1 [10] = test: as above; settings: 72 h
Procedure: as §1

T-47D [11] = test: drug sensitivity score (DSS) (DSS (dimensionless)); higher = more sensitive; extreme values may be limits of the assay; settings: 72 h
Procedure: (§2)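 FIMM FO2B library drugs were tested at 5 concentrations (10,000-fold range) for 72 h, with CellTiter-Glo viability normalised to DMSO and benzethonium chloride controls. The Drug Sensitivity Score (DSS) is computed from the fitted logistic dose-response curve (area-based; 0 = inactive). Resistant lines and the 'in 1µM tamoxifen' arms were tested in 1 µM 4-OH-tamoxifen.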

BT-474 [12] = test: as above; settings: 72 h
Procedure: as §2

T-47D Tam1 [13] = test: as above; settings: 4-OH-tamoxifen in medium 1 µM; 72 h
Procedure: as §2

T-47D Tam2 = test: as above; settings: 4-OH-tamoxifen in medium 1 µM; 72 h
Procedure: as §2

BT-474 Tam2 [14] = test: as above; settings: 4-OH-tamoxifen in medium 1 µM; 72 h
Procedure: as §2

BT-474 Tam1 [15] = test: as above; settings: 4-OH-tamoxifen in medium 1 µM; 72 h
Procedure: as §2

MCF-7 [16] = test: as above; settings: 72 h
Procedure: as §2

ZR-75-1 Tam1 [17] = test: as above; settings: 4-OH-tamoxifen in medium 1 µM; 72 h
Procedure: as §2

MCF-7 Tam1 [18] = test: as above; settings: 4-OH-tamoxifen in medium 1 µM; 72 h
Procedure: as §2

ZR-75-1 Tam2 [19] = test: as above; settings: 4-OH-tamoxifen in medium 1 µM; 72 h
Procedure: as §2

ZR-75-1 [20] = test: as above; settings: 72 h
Procedure: as §2

Row | relative IC50 (T-47D [1]; 4-OH-tamoxifen in medium 0 µM) [µM] | relative IC50 (T-47D [1]; 4-OH-tamoxifen in medium 1 µM) [µM] | relative IC50 (BT-474 [2]; 4-OH-tamoxifen in medium 0 µM) [µM] | relative IC50 (BT-474 [2]; 4-OH-tamoxifen in medium 1 µM) [µM] | relative IC50 (T-47D Tam1 [3]) [µM] | relative IC50 (BT-474 Tam2 [4]) [µM] | relative IC50 (BT-474 Tam1 [5]) [µM] | relative IC50 (MCF-7 [6]; 4-OH-tamoxifen in medium 0 µM) [µM] | relative IC50 (MCF-7 Tam1 [8]) [µM] | relative IC50 (MCF-7 [6]; 4-OH-tamoxifen in medium 1 µM) [µM] | Compound | relative IC50 (ZR-75-1 Tam1 [7]) [µM] | relative IC50 (ZR-75-1 Tam2 [9]) [µM] | relative IC50 (ZR-75-1 [10]; 4-OH-tamoxifen in medium 0 µM) [µM] | relative IC50 (ZR-75-1 [10]; 4-OH-tamoxifen in medium 1 µM) [µM] | drug sensitivity score (T-47D [11]; 4-OH-tamoxifen in medium 0 µM) | drug sensitivity score (T-47D [11]; 4-OH-tamoxifen in medium 1 µM) | drug sensitivity score (BT-474 [12]; 4-OH-tamoxifen in medium 0 µM) | drug sensitivity score (BT-474 [12]; 4-OH-tamoxifen in medium 1 µM) | drug sensitivity score (T-47D Tam1 [13]) | drug sensitivity score (T-47D Tam2) | drug sensitivity score (BT-474 Tam2 [14]) | drug sensitivity score (BT-474 Tam1 [15]) | drug sensitivity score (MCF-7 [16]; 4-OH-tamoxifen in medium 0 µM) | drug sensitivity score (MCF-7 [16]; 4-OH-tamoxifen in medium 1 µM) | drug sensitivity score (ZR-75-1 Tam1 [17]) | drug sensitivity score (MCF-7 Tam1 [18]) | drug sensitivity score (ZR-75-1 Tam2 [19]) | drug sensitivity score (ZR-75-1 [20]; 4-OH-tamoxifen in medium 0 µM) | drug sensitivity score (ZR-75-1 [20]; 4-OH-tamoxifen in medium 1 µM)
1 | > 10 | > 10 | > 10 | > 10 | > 10 | > 10 | > 10 | > 10 | > 10 |  | CC(C)C(=O)Nc1ccc([N+](=O)[O-])c(C(F)(F)F)c1 [Flutamide] | > 10 | > 10 | > 10 | > 10 | 0 | 0 | 0 | 0 | 0 | 0.0387 | 0 | 0 | 0 | 0.814 | 0 | 0 | 0 | 0 | 0
2 | > 10 | > 10 | > 10 | > 10 | > 10 | > 10 | > 10 | > 10 | > 10 | > 10 | CN(N=O)C(=O)N[C@@H](C=O)[C@@H](O)[C@H](O)[C@H](O)CO [Streptozocin] | > 10 | > 10 | > 10 | > 10 | 0 | 0 | 0 | 0 | 0 | 0 | 0 | 0 | 0 | 0 | 0 | 0 | 0 | 0 | 0
3 | > 1 |  | > 1 | > 1 | > 1 | > 1 | > 1 | > 1 | > 1 | > 1 | CC(=O)Nc1ccc(C(=O)Nc2ccccc2N)cc1 [Tacedinaline (CI-994)] | > 1 | > 1 | > 1 | > 1 | 0 | 0.0059 | 0 | 0 | 0 | 0.132 | 0 | 0 | 0 | 0 | 0 | 0 | 0 | 0 | 0
4 | > 0.8 | > 0.8 | > 0.8 | > 0.8 | > 0.8 | > 0.8 | > 0.8 | > 0.8 | > 0.8 | > 0.8 | CCCCC/C=C/C=C1/C(=O)C=C[C@@H]1C/C=C\CCCC(=O)O [15D-PGJ2] | > 0.8 | > 0.8 | > 0.8 | > 0.8 | 0 | 0 | 0 | 0 | 0 | 0.598 | 0 | 0 | 0 | 0 | 0 | 0 | 0 | 0 | 0

The remaining lines, values behind:

Row | Compound | relative IC50 (T-47D [1]; 4-OH-tamoxifen in medium 0 µM) [µM] | relative IC50 (T-47D [1]; 4-OH-tamoxifen in medium 1 µM) [µM] | relative IC50 (BT-474 [2]; 4-OH-tamoxifen in medium 0 µM) [µM] | relative IC50 (BT-474 [2]; 4-OH-tamoxifen in medium 1 µM) [µM] | relative IC50 (T-47D Tam1 [3]) [µM] | relative IC50 (BT-474 Tam2 [4]) [µM] | relative IC50 (BT-474 Tam1 [5]) [µM] | relative IC50 (MCF-7 [6]; 4-OH-tamoxifen in medium 0 µM) [µM] | relative IC50 (MCF-7 Tam1 [8]) [µM] | relative IC50 (MCF-7 [6]; 4-OH-tamoxifen in medium 1 µM) [µM] | relative IC50 (ZR-75-1 Tam1 [7]) [µM] | relative IC50 (ZR-75-1 Tam2 [9]) [µM] | relative IC50 (ZR-75-1 [10]; 4-OH-tamoxifen in medium 0 µM) [µM] | relative IC50 (ZR-75-1 [10]; 4-OH-tamoxifen in medium 1 µM) [µM] | drug sensitivity score (T-47D [11]; 4-OH-tamoxifen in medium 0 µM) | drug sensitivity score (T-47D [11]; 4-OH-tamoxifen in medium 1 µM) | drug sensitivity score (BT-474 [12]; 4-OH-tamoxifen in medium 0 µM) | drug sensitivity score (BT-474 [12]; 4-OH-tamoxifen in medium 1 µM) | drug sensitivity score (T-47D Tam1 [13]) | drug sensitivity score (T-47D Tam2) | drug sensitivity score (BT-474 Tam2 [14]) | drug sensitivity score (BT-474 Tam1 [15]) | drug sensitivity score (MCF-7 [16]; 4-OH-tamoxifen in medium 0 µM) | drug sensitivity score (MCF-7 [16]; 4-OH-tamoxifen in medium 1 µM) | drug sensitivity score (ZR-75-1 Tam1 [17]) | drug sensitivity score (MCF-7 Tam1 [18]) | drug sensitivity score (ZR-75-1 Tam2 [19]) | drug sensitivity score (ZR-75-1 [20]; 4-OH-tamoxifen in medium 0 µM) | drug sensitivity score (ZR-75-1 [20]; 4-OH-tamoxifen in medium 1 µM)
5 | CC1(C)CNc2cc(NC(=O)c3cccnc3NCc3ccncc3)ccc21 [Motesanib  (AMG-706)] | > 10 | > 10 | > 10 | > 10 | > 10 | > 10 | > 10 | > 10 | > 10 | > 10 | > 10 | > 10 | > 10 | > 10 | 0 | 0 | 0 | 0 | 0 | 0.166 | 0 | 0 | 0 | 0 | 0 | 0 | 0 | 0 | 0
6 | O=S(=O)(c1cccc2cnccc12)N1CCCNCC1 [Fasudil  (HA-1077)] | > 50 | > 50 | > 50 | > 50 | > 50 | > 50 | > 50 |  | > 50 | > 50 | > 50 | > 50 | > 50 | > 50 | 0 | 0.739 | 1.03 | 5.24 | 1.67 | 1.06 | 6.54 | 6.87 | 0.328 | 0 | 0 | 0 | 0 | 0 | 0
7 | Cc1ccc(-c2cc(C(F)(F)F)nn2-c2ccc(S(N)(=O)=O)cc2)cc1 [Celecoxib] | > 10 | > 10 | > 10 | > 10 | > 10 | > 10 |  |  | > 10 | > 10 | > 10 | > 10 | > 10 |  | 0 | 0 | 0 | 0 | 0 | 0.335 | 0 | 0.0337 | 0.0979 | 0 | 0 | 0 | 0 | 0 | 0.0083
